From US6962942B2, “Azacycloalkanone serine protease inhibitors” (3-Dimensional Pharmaceuticals, Inc., priority 1999, dated 2005)

Assays:
human factor Xa = target: T1, human factor Xa (Homo sapiens, UniProt P00742); assay: In vitro inhibition of purified factor Xa (p-nitroanilide substrate hydrolysis, Ki determination); assay type: biochemical; conditions: for Ki: substrate N-benzoyl-Ile-Glu-Gly-Arg-p-nitroanilide hydrochloride, pH 7.5, 37° C., read-out: Ki against factor Xa
T1 construct: purchased Enzyme Research Laboratories (South Bend, Indiana)
T1 sequence (P00742 235-488 limits assumed): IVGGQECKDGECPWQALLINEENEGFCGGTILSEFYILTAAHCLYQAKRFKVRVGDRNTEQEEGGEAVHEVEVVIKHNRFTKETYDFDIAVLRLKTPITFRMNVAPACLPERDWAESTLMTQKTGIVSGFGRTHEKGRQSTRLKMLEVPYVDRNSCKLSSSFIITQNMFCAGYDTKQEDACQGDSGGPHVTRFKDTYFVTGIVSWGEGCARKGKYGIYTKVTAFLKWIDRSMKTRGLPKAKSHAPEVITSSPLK
T1 sequence (P00742 41-179 partner limits assumed): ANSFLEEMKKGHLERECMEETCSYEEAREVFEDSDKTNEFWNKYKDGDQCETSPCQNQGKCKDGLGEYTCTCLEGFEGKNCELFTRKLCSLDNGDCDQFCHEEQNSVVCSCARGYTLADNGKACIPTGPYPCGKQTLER
Source text: (§1) Reagents: All buffer salts were obtained from Sigma Chemical Company (St. Louis, Mo.), and were of the highest purity available. The enzyme substrates, N-benzoyl-Phe-Val-Arg-p-nitroanilide (Sigma B7632), N-benzoyl-Ile-Glu-Gly-Arg-p-nitroanilide hydrochloride (Sigma B2291), N-p-Tosyl-Gly-Pro-Lys-p-nitroanilide (Sigma T6140), N-succinyl-Ala-Ala-Pro-Phe-p-nitroanilide (Sigma S7388) and N-CBZ-Val-Gly-Arg-p-nitroanilide (Sigma C7271) were obtained from Sigma. N-succinyl-Ala-Ala-Pro-Arg-p-nitroanilide (BACHEM L-1720) and N-succinyl-Ala-Ala-Pro-Val-p-nitroanilide (BACHEM L-1770) were obtained from BACHEM (King of Prussia, Pa.).
(§2) Human α-thrombin, and human factor Xa were obtained from Enzyme Research Laboratories (South Bend, Indiana). Bovine α-chymotrypsin (Sigma C4129), bovine trypsin (Sigma T8642) and human kidney cell urokinase (Sigma U5004) were obtained from Sigma. Human leukocyte elastase was obtained from Elastin Products (Pacific, Mo.).
(§3) Ki Determinations: All assays are based on the ability of the test compound to inhibit the enzyme catalyzed hydrolysis of a peptide p-nitroanilide substrate. […] In general, substrate concentrations are lower than the experimentally determined value for Km. […]
(§4) In a typical Ki determination, into each well of a 96 well plate is pipetted […] of substrate solution, […] of test compound solution, and the plate allowed to thermally equilibrate at 37° C. in a Molecular Devices plate reader for >15 minutes. Reactions were initiated by the addition of a […] aliquot of enzyme and the absorbance increase at 405 nm is recorded for 15 minutes. […] The ratio of the velocity (rate of change in absorbance as a function of time) for a sample containing no test compound is divided by the velocity of a sample containing test compound, and is plotted as a function of test compound concentration. The data are fit to a linear regression, and the value of the slope of the line calculated. The inverse of the slope is the experimentally determined Ki value. […]

Human α-thrombin = target: T2, Human α-thrombin (Homo sapiens, UniProt P00734); assay: In vitro inhibition of purified thrombin (p-nitroanilide substrate hydrolysis, Ki determination); assay type: biochemical; conditions: substrate N-succinyl-Ala-Ala-Pro-Arg-p-nitroanilide, pH 7.5, 37° C.; read-out: Ki against thrombin
T2 construct: Human α-thrombin, and human factor Xa were obtained from Enzyme Research Laboratories; purchased Enzyme Research Laboratories (South Bend, Indiana)
Source text: as §1, §2, §3, §4

Structure (SMILES): COc1ccc(S(=O)(=O)N[C@H]2CCCN(CC(=O)NCCONC(=N)N)C2=O)cc1 [Example 11]
- Ki (human factor Xa): 2100 nM
- Ki (Human α-thrombin): 1200 nM

Structure (SMILES): N=C(N)NOCCNC(=O)CN1CCC[C@H](NS(=O)(=O)c2ccc(-c3ccc4ccccc4c3)cc2)C1=O [Example 42]
- Ki (human factor Xa): 360 nM
- Ki (Human α-thrombin): 6400 nM

Structure (SMILES): N=C(N)NOCCNC(=O)CN1CCC[C@H](NS(=O)(=O)Cc2ccccc2)C1=O [Example 2]
- activity against factor Xa (human factor Xa; at a concentration of 10 μM): no activity
- Ki (Human α-thrombin): 700 nM
